According to ChEMBL document CHEMBL5370549, “Optimization and evaluation of pyridinyl vinyl sulfones as Nrf2 activator for the antioxidant and anti-inflammatory effects” (Eur J Med Chem, 2023):
The source made the active and inactive calls.

Key:
BV-2 = assay: Antiinflammatory activity against LPS-induced mouse BV-2 cells assessed as inhibition of IL-1 beta protein expression at 0.001 to 1 uM pretreated for 6 hrs followed by LPS stimulation for 24 hrs by immunoblot analysis; assay type: functional, cell-based; details: dose 0.001-1 µM, time 30.0 hrs
Mus musculus [1] = assay: Antiinflammatory activity against LPS-induced neuroinflammation C57BL/6N mouse model assessed as inhibition of TNF-alpha production in plasma at 20 mg/kg/day, po administered for 3 days followed by LPS administration for 7 days by ELISA; assay type: functional, organism-based; details: time 10.0 day
Mus musculus [2] = assay: Antiinflammatory activity against LPS-induced neuroinflammation C57BL/6N mouse model assessed as reduction of glial cell reactivity by measuring reduction in GFAP expression in cortex at 20 mg/kg/day, po administered for 3 days followed by LPS administration for 7 days by immunofluorescence staining based analysis; assay type: functional, organism-based; details: time 10.0 day

Measured: Activity

COc1cccnc1S(=O)(=O)/C=C/c1ncccc1Cl
active: BV-2 | Mus musculus [1] | Mus musculus [2]
